Measurements from PubChem BioAssay AID330 (DTP/NCI, 2004).
Several values for one entry are separate records, joined by “and”; a condition that tells them apart may be missing. Equal entries are not always repeated. Inconclusive results and toxic doses are left out. Rule for the calls: active = survival T/C of 150% or more; inactive = T/C below 125% in these data.

Tested on: P388 leukemia ip, CD2F1 mice, survival T/C
Assay: NCI In Vivo Anticancer Drug Screen. Data for tumor model P388 Leukemia (intraperitoneal) in CD2F1 (CDF1) mice
Details: endpoint: median survival time, higher = longer survival
Procedure, shortened: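 Mice carrying the transplanted tumor received test compound or vehicle. Survival was recorded in each group, and the value is the treated-group measurement divided by that of the vehicle-treated control group.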

[1] = dose: 50.0 mg/kg/injection, schedule: Q01DX009 (ip), vehicle: suspension in saline
[2] = dose: 100.0 mg/kg/injection, schedule: Q01DX009 (ip), vehicle: saline
[3] = dose: 100.0 mg/kg/injection, schedule: Q01DX009 (ip), vehicle: suspension in saline
[4] = dose: 200.0 mg/kg/injection, schedule: Q01DX009 (ip), vehicle: saline
[5] = dose: 200.0 mg/kg/injection, schedule: Q01DX009 (ip), vehicle: suspension in saline
[6] = dose: 50.0 mg/kg/injection, schedule: Q01DX005 (ip), vehicle: saline with Tween-80
[7] = dose: 100.0 mg/kg/injection, schedule: Q01DX005 (ip), vehicle: saline with Tween-80
[8] = dose: 200.0 mg/kg/injection, schedule: Q01DX005 (ip), vehicle: saline with Tween-80
[9] = dose: 25.0 mg/kg/injection, schedule: Q01DX009 (ip), vehicle: saline
[10] = dose: 50.0 mg/kg/injection, schedule: Q01DX009 (ip), vehicle: saline
[11] = dose: 100.0 mg/kg/injection, schedule: Q01DX001 (ip), vehicle: saline with Tween-80
[12] = dose: 200.0 mg/kg/injection, schedule: Q01DX001 (ip), vehicle: saline with Tween-80
[13] = dose: 12.5 mg/kg/injection, schedule: Q01DX009 (ip), vehicle: saline
[14] = dose: 60.0 mg/kg/injection, schedule: Q01DX005 (ip), vehicle: saline with Tween-80
[15] = dose: 120.0 mg/kg/injection, schedule: Q01DX005 (ip), vehicle: saline with Tween-80
[16] = dose: 240.0 mg/kg/injection, schedule: Q01DX005 (ip), vehicle: saline with Tween-80
[17] = dose: 100.0 mg/kg/injection, schedule: Q04DX002 (ip), vehicle: Klucel (hydroxypropylcellulose) (HPC)
[18] = dose: 100.0 mg/kg/injection, schedule: Q04DX003 (ip), vehicle: saline with Tween-80

Measured: T/C

O=[N+]([O-])c1ccc(Sc2nccc(Cl)n2)c([N+](=O)[O-])c1
inactive: [1] 100 % of control | [2] 92 % of control | [3] 98 % of control | [4] 104 % of control | [5] 91 % of control

CC(C)Cc1cc(-c2cc(CC(C)C)on2)no1
inactive: dose: 60.0 mg/kg/injection, schedule: Q01DX005 (ip), vehicle: saline 100 % of control | dose: 120.0 mg/kg/injection, schedule: Q01DX005 (ip), vehicle: saline 104 % of control | dose: 240.0 mg/kg/injection, schedule: Q01DX005 (ip), vehicle: saline 100 % of control

Cc1nc2cc(C)n3c(C)nnc3n2n1
inactive: [6] 105 % of control | [7] 100 % of control | [8] 100 % of control

CC(=O)OCCCN1/C(=C/C=C2\CCC(/C=C/c3sc4cc5ccccc5cc4[n+]3CCCOC(C)=O)=C2N(c2ccccc2)c2ccccc2)Sc2cc3ccccc3cc21
inactive: dose: 12.5 mg/kg/injection, schedule: Q01DX009 (ip), vehicle: Klucel (hydroxypropylcellulose) (HPC) 110 % of control | dose: 25.0 mg/kg/injection, schedule: Q01DX009 (ip), vehicle: Klucel (hydroxypropylcellulose) (HPC) 110 % of control | dose: 50.0 mg/kg/injection, schedule: Q01DX009 (ip), vehicle: Klucel (hydroxypropylcellulose) (HPC) 111 % of control

CC1=C/C(=C(\c2cc(C)c(O)c(C(=O)O)c2)c2c(Cl)ccc(S(=O)(=O)O)c2Cl)C=C(C(=O)O)C1=O
inactive: [9] 102 % of control | [10] 102 % of control and 91 % of control | [2] 108 % of control and 95 % of control | [4] 98 % of control and 106 % of control

CC1(C)CC1(Cl)S(C)(=O)=O (stereo not drawn)
inactive: [11] 106 % of control | [12] 105 % of control | dose: 400.0 mg/kg/injection, schedule: Q01DX001 (ip), vehicle: saline with Tween-80 100 % of control

O=Ic1ccccc1
inactive: dose: 3.12 mg/kg/injection, schedule: Q01DX009 (ip), vehicle: saline with Tween-80 104 % of control | dose: 6.25 mg/kg/injection, schedule: Q01DX009 (ip), vehicle: saline with Tween-80 108 % of control | dose: 12.5 mg/kg/injection, schedule: Q01DX009 (ip), vehicle: saline with Tween-80 114 % of control | dose: 25.0 mg/kg/injection, schedule: Q01DX009 (ip), vehicle: saline with Tween-80 112 % of control | dose: 50.0 mg/kg/injection, schedule: Q01DX009 (ip), vehicle: saline with Tween-80 99 % of control

O=C(O)C12CC3CC(CC(C3)C1)C2.O=C(O)C12CC3CC(CC(C3)C1)C2.O=C(O)C12CC3CC(CC(C3)C1)C2.O=C(O)C12CC3CC(CC(C3)C1)C2.[Rh].[Rh]
inactive: [13] 94 % of control | [9] 91 % of control and 93 % of control | [10] 100 % of control and 88 % of control | [1] 101 % of control | [2] 91 % of control | [3] 120 % of control | [5] 108 % of control

O=C1CS/C(=N\C(=O)Nc2ccc(Cl)c(Cl)c2)N1
inactive: dose: 6.25 mg/kg/injection, schedule: Q01DX009 (ip), vehicle: saline 91 % of control | [13] 100 % of control | [9] 94 % of control | dose: 50.0 mg/kg/injection, schedule: Q01DX009 (ip), vehicle: saline + alcohol 88 % of control | dose: 100.0 mg/kg/injection, schedule: Q01DX009 (ip), vehicle: saline + alcohol 91 % of control | dose: 200.0 mg/kg/injection, schedule: Q01DX009 (ip), vehicle: saline + alcohol 88 % of control

C[CH2][Ge]([CH2]C)[CH2]C.C[CH2][Ge]([Cl])[CH2]C
inactive: [10] 100 % of control | [2] 100 % of control | [4] 91 % of control

O=C1OC(C2OC(=O)C(=O)C2C(=O)c2ccc(Cl)cc2)C(C(=O)c2ccc(Cl)cc2)C1=O (stereo not drawn)
inactive: dose: 60.0 mg/kg/injection, schedule: Q01DX005 (ip), vehicle: saline + Tween-80 + alcohol 95 % of control | dose: 120.0 mg/kg/injection, schedule: Q01DX005 (ip), vehicle: saline + Tween-80 + alcohol 92 % of control | dose: 240.0 mg/kg/injection, schedule: Q01DX005 (ip), vehicle: saline + Tween-80 + alcohol 94 % of control

CC1(O)COC1(c1ccccc1)c1ccccc1 (stereo not drawn)
inactive: [14] 93 % of control | [15] 96 % of control | [16] 93 % of control

COC(=O)c1nc(=S)[nH]c(C(=O)OC)c1C(=O)c1cccc(O)c1
inactive: dose: 60.0 mg/kg/injection, schedule: Q01DX005 (ip), vehicle: suspension in saline 95 % of control | dose: 120.0 mg/kg/injection, schedule: Q01DX005 (ip), vehicle: suspension in saline 90 % of control

O=S(=O)(Nc1cccc(F)c1)c1ccc(F)cc1
inactive: [14] 103 % of control | [15] 99 % of control | [16] 93 % of control

O=Cc1ccc(COCCO)o1
inactive: [14] 105 % of control | [15] 102 % of control | [16] 102 % of control

Cn1c(N)nc2c(nc(OCc3ccccc3)n2C2OC(CO)C(O)C2O)c1=O (stereo not drawn)
inactive: [14] 100 % of control | [15] 94 % of control | [16] 103 % of control

NC(N)=N/N=C1\C(=O)N(c2cccc([N+](=O)[O-])c2)C(=O)C1C(=O)Nc1cccc([N+](=O)[O-])c1 (stereo not drawn)
inactive: [11] 102 % of control | [12] 100 % of control

CCN(C)c1cc2c3c(c1)CCCN3CCC2
inactive: dose: 1.25 mg/kg/injection, schedule: Q01DX009 (ip), vehicle: saline 113 % of control | dose: 1.25 mg/kg/injection, schedule: Q04DX003 (ip), vehicle: saline 100 % of control | dose: 2.5 mg/kg/injection, schedule: Q01DX009 (ip), vehicle: saline 109 % of control | dose: 2.5 mg/kg/injection, schedule: Q04DX003 (ip), vehicle: saline 95 % of control | dose: 5.0 mg/kg/injection, schedule: Q01DX009 (ip), vehicle: saline 104 % of control | dose: 5.0 mg/kg/injection, schedule: Q04DX003 (ip), vehicle: saline 109 % of control

COc1ccc2c(c1)[C@@]13CCCCC1[C@@H](C2)NCC3 (stereo partly drawn)
inactive: [17] 101 % of control

CCN(C/C=C/CN(CC)C(=S)Nc1ccccc1)C(=S)Nc1ccccc1
inactive: [10] 106 % of control | [2] 108 % of control | [4] 106 % of control

O=C(O)CNOCc1ccccc1
inactive: dose: 12.5 mg/kg/injection, schedule: Q01DX009 (ip), vehicle: other 95 % of control | dose: 25.0 mg/kg/injection, schedule: Q01DX009 (ip), vehicle: other 102 % of control | dose: 50.0 mg/kg/injection, schedule: Q01DX009 (ip), vehicle: other 102 % of control | dose: 100.0 mg/kg/injection, schedule: Q01DX009 (ip), vehicle: other 93 % of control | dose: 200.0 mg/kg/injection, schedule: Q01DX009 (ip), vehicle: other 89 % of control

c1ccc(CCN2COc3c(ccc4cccnc34)C2)cc1
inactive: dose: 25.0 mg/kg/injection, schedule: Q04DX003 (ip), vehicle: saline with Tween-80 110 % of control | dose: 50.0 mg/kg/injection, schedule: Q04DX003 (ip), vehicle: saline with Tween-80 110 % of control | [18] 100 % of control

C[Si](C)(C)CN1CCCC1
inactive: dose: 50.0 mg/kg/injection, schedule: Q01DX005 (ip), vehicle: saline 108 % of control | dose: 100.0 mg/kg/injection, schedule: Q01DX005 (ip), vehicle: saline 101 % of control

Cn1c(=O)c2nc(-c3cccc([N+](=O)[O-])c3)cnc2n(C)c1=O
inactive: [17] 89 % of control | dose: 200.0 mg/kg/injection, schedule: Q04DX002 (ip), vehicle: Klucel (hydroxypropylcellulose) (HPC) 95 % of control | dose: 400.0 mg/kg/injection, schedule: Q04DX002 (ip), vehicle: Klucel (hydroxypropylcellulose) (HPC) 100 % of control

Cc1ccc(S(=O)(=O)OC2COC(OCc3ccccc3)C(OS(=O)(=O)c3ccc(C)cc3)C2O)cc1 (stereo not drawn)
inactive: [6] 100 % of control | [7] 86 % of control

OC1c2cc(Cl)ccc2-c2c(N=Cc3ccc4c(c3)OCO4)cc(Cl)cc21 (stereo not drawn)
inactive: [14] 91 % of control | [15] 99 % of control | [16] 98 % of control

CCCCNC(C)(C)C(SSSC(c1cccs1)C(C)(C)NCCCC)c1cccs1 (stereo not drawn)
inactive: [6] 121 % of control | [7] 120 % of control | [18] 101 % of control | [8] 123 % of control | dose: 200.0 mg/kg/injection, schedule: Q04DX003 (ip), vehicle: saline with Tween-80 105 % of control | dose: 400.0 mg/kg/injection, schedule: Q04DX003 (ip), vehicle: saline with Tween-80 105 % of control

CCCCCCCCC1CCC(=O)NC1=O (stereo not drawn)
inactive: [14] 112 % of control | [15] 104 % of control | [16] 93 % of control
